Assay results published in patent publication EP0496162A2, “Peptide inhibitors of RAS-GAP interaction” (MERCK & CO. INC., priority 1990, dated 1992).
No end group written: not given here.

Target: T1, S. cerevisiae adenylyl cyclase (Ras Dependent, strain MY1186) (Saccharomyces cerevisiae, UniProt P08678)
T1 construct: S. cerevisiae strain MY1186 lacks endogenous yeast Ras, expresses viral Ha-Ras, and has a Ras-dependent adenylyl cyclase; endogenous in cells; host or cells: membranes of recombinant S. cerevisiae strain MY1186 (cyclase endogenous; Ha-Ras heterologously expressed)
T1 sequence (P08678 whole entry): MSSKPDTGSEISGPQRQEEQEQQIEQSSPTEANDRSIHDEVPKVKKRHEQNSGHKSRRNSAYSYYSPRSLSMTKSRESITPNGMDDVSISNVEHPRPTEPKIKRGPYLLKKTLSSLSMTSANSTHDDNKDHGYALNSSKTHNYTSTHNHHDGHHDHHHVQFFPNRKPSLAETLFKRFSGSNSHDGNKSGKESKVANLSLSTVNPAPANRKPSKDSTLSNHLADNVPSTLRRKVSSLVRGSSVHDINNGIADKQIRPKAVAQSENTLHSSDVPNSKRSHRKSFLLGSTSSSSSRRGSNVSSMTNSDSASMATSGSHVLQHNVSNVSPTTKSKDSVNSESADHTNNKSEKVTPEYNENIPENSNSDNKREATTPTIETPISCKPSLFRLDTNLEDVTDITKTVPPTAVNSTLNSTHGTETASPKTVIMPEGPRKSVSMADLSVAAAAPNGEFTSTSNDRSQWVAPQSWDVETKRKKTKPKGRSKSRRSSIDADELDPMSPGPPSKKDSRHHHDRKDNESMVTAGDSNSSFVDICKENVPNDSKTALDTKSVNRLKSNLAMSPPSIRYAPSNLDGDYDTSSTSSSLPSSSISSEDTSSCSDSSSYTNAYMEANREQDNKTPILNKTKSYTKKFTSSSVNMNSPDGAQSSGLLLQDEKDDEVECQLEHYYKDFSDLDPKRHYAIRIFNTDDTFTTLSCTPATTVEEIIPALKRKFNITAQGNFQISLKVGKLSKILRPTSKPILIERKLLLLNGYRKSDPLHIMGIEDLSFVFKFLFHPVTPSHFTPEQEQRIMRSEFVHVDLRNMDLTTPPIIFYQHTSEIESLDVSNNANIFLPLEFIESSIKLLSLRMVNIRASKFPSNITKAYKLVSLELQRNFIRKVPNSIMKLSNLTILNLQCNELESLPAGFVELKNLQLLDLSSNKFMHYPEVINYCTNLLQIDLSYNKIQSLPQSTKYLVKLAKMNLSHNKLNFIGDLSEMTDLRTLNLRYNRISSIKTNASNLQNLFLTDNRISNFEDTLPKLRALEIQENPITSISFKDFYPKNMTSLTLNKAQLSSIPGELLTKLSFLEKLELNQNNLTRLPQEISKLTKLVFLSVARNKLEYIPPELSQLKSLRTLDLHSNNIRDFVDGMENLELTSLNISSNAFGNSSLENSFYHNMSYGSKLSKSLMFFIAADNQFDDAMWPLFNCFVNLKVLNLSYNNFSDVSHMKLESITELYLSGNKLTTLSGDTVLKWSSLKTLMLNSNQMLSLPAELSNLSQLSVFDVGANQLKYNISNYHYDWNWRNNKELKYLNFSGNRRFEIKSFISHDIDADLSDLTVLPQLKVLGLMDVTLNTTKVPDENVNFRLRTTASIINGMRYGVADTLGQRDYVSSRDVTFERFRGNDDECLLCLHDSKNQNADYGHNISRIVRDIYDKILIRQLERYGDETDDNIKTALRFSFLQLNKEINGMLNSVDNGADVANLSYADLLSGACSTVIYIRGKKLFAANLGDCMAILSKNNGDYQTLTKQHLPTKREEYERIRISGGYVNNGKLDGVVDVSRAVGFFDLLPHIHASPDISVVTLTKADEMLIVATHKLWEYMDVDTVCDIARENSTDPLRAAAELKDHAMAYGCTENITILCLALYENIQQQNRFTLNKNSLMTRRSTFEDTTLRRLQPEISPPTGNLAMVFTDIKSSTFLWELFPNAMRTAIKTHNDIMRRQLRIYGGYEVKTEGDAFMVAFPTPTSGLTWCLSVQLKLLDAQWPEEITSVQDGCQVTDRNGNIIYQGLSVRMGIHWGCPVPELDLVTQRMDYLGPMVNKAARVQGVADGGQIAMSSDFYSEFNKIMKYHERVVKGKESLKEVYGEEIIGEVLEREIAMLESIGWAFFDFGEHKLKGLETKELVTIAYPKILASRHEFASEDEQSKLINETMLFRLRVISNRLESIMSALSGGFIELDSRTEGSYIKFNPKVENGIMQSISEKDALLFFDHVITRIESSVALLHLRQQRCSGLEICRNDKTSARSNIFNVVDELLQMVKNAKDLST
Assay: Yeast adenylyl cyclase assay, Ras-dependent, membranes from strain MY1186 (expresses mammalian Ras)
Format: biochemical
Conditions: part A
Description: Another Ras-dependent enzymatic assay was used to extend the observed ability of the peptides of the present invention to inhibit Ras function. This system, yeast adenylyl cyclase assay, measures the Ras-dependent conversion of ATP into cyclic AMP (cAMP). […] Furthermore, in S. cerevisiae, regulation of cAMP metabolism appears to be a major function of Ras. This assay system was used to extend the observed Ras inhibitory activity of the peptides of the present invention, to a Ras function which is GAP-unrelated. S. cerevisiae strain FlD lacks functional Ras proteins, however FlD cells have functional adenylyl cyclase in their cell membrane. […] Similarly, a recombinant S. cerevisiae strain MY1186, lacks yeast Ras proteins but expresses mammalian Ras protein which functions with adenylyl cyclase to regulate cAMP metabolisim in the yeast cells. […] In contrast, S. cerevisiae strain JC377-10B contains a mutant form of adenylyl cyclase which constitutively converts ATP into cAMP with or without Ras.
Ras peptides were tested at the indicated concentrations for inhibition of S. cerevisiae adenylyl cyclase activity. […] Ras-independent activity was assayed with membranes from strain JC377-10B (ras-minus, constitutively active adenylyl cyclase).
Yeast strain FlD, MY1186 and JC377-10B, were grown in YEHD medium at 30°C. Membrane fractions were prepared from cultures grown to an A₆₆₀ of 0.5 to 1.0 by glusulase digestion [Casperson, G.F. et al., (1983), J. Biol. Chem., 258, pp. 7911-7914], Dounce homogenization of the spheroplasts in buffer containing 50 mM sodium MES [2(N-morpholino) ethanesulfonic acid] […] Adenylyl cyclase assays (100-µL reaction volume) measured the conversion of [α-³²P]ATP to [³²P]cAMP at 30°C, using 50 µg to 100 µg of membrane protein in assays using membranes from yeast strains MY1186 and JC377-10B.. […] Since these membranes contain adenylyl cyclase, but are lacking Ras protein, stimulation of adenylyl cyclase activity may be measured following reconstitution with purified Ras complexed with GTP. […]

CC[C@H](C)[C@H](NC(=O)[C@H](CC(C)C)NC(=O)[C@H](CCC(N)=O)NC(=O)[C@@H](NC(=O)[C@@H](NC(=O)[C@H](CC(C)C)NC(=O)[C@H](C)NC(=O)[C@@H](N)CO)[C@@H](C)O)[C@@H](C)CC)C(=O)N[C@@H](CCC(N)=O)C(=O)N[C@@H](CC(N)=O)C(=O)N[C@@H](Cc1c[nH]cn1)C(=O)N[C@@H](Cc1ccccc1)C(=O)N[C@H](C(=O)N[C@@H](CC(=O)O)C(=O)N[C@@H](CCC(=O)O)C(=O)N[C@@H](Cc1ccc(O)cc1)C(=O)O)C(C)C [Ras 17-32]
%Inhibition of Adenylyl Cyclase Activity Ras Dependent (peptide 19 µM): 34%

LIQNHFVDEYDPTIE [Ras 23-37]
%Inhibition of Adenylyl Cyclase Activity Ras Dependent (peptide 100 µM): 2%

SALTIQLIQNHFVDEYDPTIE [Ras 17-37]
%Inhibition of Adenylyl Cyclase Activity Ras Dependent (peptide 40 µM): 58 ± 2%
